# Source: the OligoGym collection
# Oligonucleotides are written 5' to 3', each unit as a sugar letter and its base; * is a phosphorothioate linkage, no mark a phosphodiester; rarer units and linkages stand in square brackets, end groups in braces. Plain capitals give the bases only. d = 2'-deoxy (DNA); r = 2'-OH (RNA)
# Biological target: UBE2E3
# Assay: reporter assay of Huesken 2005
# Conditions: siRNA
# Further: test concentration or dose not given here.
row,Substance,normalised inhibition (eCFP-eYFP dual reporter) [%]
1,sense rArCrUrArUrUrUrCrArArArGrGrUrUrUrUrGrCdTdT / antisense rGrCrArArArArCrCrUrUrUrGrArArArUrArGrUdCdA,34.3
2,sense rArCrUrGrCrArArCrCrCrUrGrCrGrGrArUrCrCdTdT / antisense rGrGrArUrCrCrGrCrArGrGrGrUrUrGrCrArGrUdCdT,71.1
3,sense rArGrArUrCrArArCrUrArUrArCrUrUrGrGrUrCdTdT / antisense rGrArCrCrArArGrUrArUrArGrUrUrGrArUrCrUdCdC,52.8
4,sense rArGrCrCrUrGrArArGrArArCrArArGrArGrGrAdTdT / antisense rUrCrCrUrCrUrUrGrUrUrCrUrUrCrArGrGrCrUdCdT,89
5,sense rArGrCrUrGrArArArUrArArCrCrCrUrUrGrArUdTdT / antisense rArUrCrArArGrGrGrUrUrArUrUrUrCrArGrCrUdAdG,82
6,sense rArGrUrCrCrCrGrCrUrUrUrGrArCrUrArUrUrUdTdT / antisense rArArArUrArGrUrCrArArArGrCrGrGrGrArCrUdCdC,56.7
7,sense rArUrArGrCrCrArCrUrCrArGrUrArUrUrUrGrAdTdT / antisense rUrCrArArArUrArCrUrGrArGrUrGrGrCrUrArUdGdC,88.7
8,sense rArUrCrArArCrArGrUrCrArGrGrGrArGrUrCrAdTdT / antisense rUrGrArCrUrCrCrCrUrGrArCrUrGrUrUrGrArUdGdT,70.5
9,sense rArUrCrArArCrUrArUrArCrUrUrGrGrUrCrCrAdTdT / antisense rUrGrGrArCrCrArArGrUrArUrArGrUrUrGrArUdCdT,59.5
10,sense rArUrCrArCrUrGrCrArArCrArUrCrArArCrArGdTdT / antisense rCrUrGrUrUrGrArUrGrUrUrGrCrArGrUrGrArUdAdG,69.7
11,sense rArUrUrCrArGrArArGrGrArGrCrUrArGrCrUrGdTdT / antisense rCrArGrCrUrArGrCrUrCrCrUrUrCrUrGrArArUdTdC,42.3
12,sense rArUrUrUrArArGrCrCrArCrCrArArArGrGrUrUdTdT / antisense rArArCrCrUrUrUrGrGrUrGrGrCrUrUrArArArUdGdG,64.2
13,sense rArUrUrUrGrUrUrCrCrCrUrUrUrUrGrArCrArGdTdT / antisense rCrUrGrUrCrArArArArGrGrGrArArCrArArArUdAdG,47.8
14,sense rCrArArArGrGrUrUrUrUrGrCrUrGrUrCrUrArUdTdT / antisense rArUrArGrArCrArGrCrArArArArCrCrUrUrUrGdAdA,92.4
15,sense rCrArArCrCrCrUrGrCrGrGrArUrCrCrUrCrUrGdTdT / antisense rCrArGrArGrGrArUrCrCrGrCrArGrGrGrUrUrGdCdA,56.3
16,sense rCrArCrCrArArArCrUrCrUrCrUrArGrCrArArAdTdT / antisense rUrUrUrGrCrUrArGrArGrArGrUrUrUrGrGrUrGdTdT,84.2
17,sense rCrArCrCrArArArGrGrUrUrArCrUrUrUrCrCrGdTdT / antisense rCrGrGrArArArGrUrArArCrCrUrUrUrGrGrUrGdGdC,58.8
18,sense rCrArCrUrCrArGrUrArUrUrUrGrArCrCrArArCdTdT / antisense rGrUrUrGrGrUrCrArArArUrArCrUrGrArGrUrGdGdC,87.1
19,sense rCrArGrUrGrCrUrGrGrGrCrCrUrArArArGrGrAdTdT / antisense rUrCrCrUrUrUrArGrGrCrCrCrArGrCrArCrUrGdCdA,73.2
20,sense rCrArGrUrGrGrCrArGrUrUrCrArGrArUrGrCrGdTdT / antisense rCrGrCrArUrCrUrGrArArCrUrGrCrCrArCrUrGdCdT,53
21,sense rCrCrArArArCrUrCrUrCrUrArGrCrArArArArCdTdT / antisense rGrUrUrUrUrGrCrUrArGrArGrArGrUrUrUrGrGdTdG,69.8
22,sense rCrCrArArCrArGrArGrCrArGrArArCrArCrGrAdTdT / antisense rUrCrGrUrGrUrUrCrUrGrCrUrCrUrGrUrUrGrGdTdC,88.8
23,sense rCrCrUrCrCrUrCrCrUrArArUrUrGrCrArGrUrGdTdT / antisense rCrArCrUrGrCrArArUrUrArGrGrArGrGrArGrGdAdT,62.6
24,sense rCrCrUrUrArArArGrArCrArArCrUrGrGrArGrUdTdT / antisense rArCrUrCrCrArGrUrUrGrUrCrUrUrUrArArGrGdAdT,58.9
25,sense rCrCrUrUrGrArUrCrCrUrCrCrUrCrCrUrArArUdTdT / antisense rArUrUrArGrGrArGrGrArGrGrArUrCrArArGrGdGdT,81.6
26,sense rCrGrArCrArGrGrArUrArGrCrCrArGrArCrArGdTdT / antisense rCrUrGrUrCrUrGrGrCrUrArUrCrCrUrGrUrCrGdTdG,78

row,Substance,normalised inhibition (eCFP-eYFP dual reporter) [%]
1,sense rCrGrCrArCrCrArGrArArUrCrUrArUrCrArCrUdTdT / antisense rArGrUrGrArUrArGrArUrUrCrUrGrGrUrGrCrGdGdA,73.4
2,sense rCrUrCrCrUrArArUrUrGrCrArGrUrGrCrUrGrGdTdT / antisense rCrCrArGrCrArCrUrGrCrArArUrUrArGrGrArGdGdA,51.1
3,sense rCrUrCrCrUrCrCrUrArArUrUrGrCrArGrUrGrCdTdT / antisense rGrCrArCrUrGrCrArArUrUrArGrGrArGrGrArGdGdA,34.3
4,sense rCrUrGrGrArGrUrCrCrCrGrCrUrUrUrGrArCrUdTdT / antisense rArGrUrCrArArArGrCrGrGrGrArCrUrCrCrArGdTdT,72
5,sense rCrUrGrUrArUrArUrGrArArGrGrUrGrGrUrGrUdTdT / antisense rArCrArCrCrArCrCrUrUrCrArUrArUrArCrArGdAdA,36.8
6,sense rCrUrUrGrGrUrCrCrArCrCrGrGrGrUrUrCrUrGdTdT / antisense rCrArGrArArCrCrCrGrGrUrGrGrArCrCrArArGdTdA,68.4
7,sense rGrArArGrGrArGrCrUrArGrCrUrGrArArArUrAdTdT / antisense rUrArUrUrUrCrArGrCrUrArGrCrUrCrCrUrUrCdTdG,88.5
8,sense rGrArCrCrArGrCrGrArGrArCrCrCrArGrCrCrGdTdT / antisense rCrGrGrCrUrGrGrGrUrCrUrCrGrCrUrGrGrUrCdCdG,54.7
9,sense rGrArUrArUrCrArCrArUrUrUrUrCrArUrCrArGdTdT / antisense rCrUrGrArUrGrArArArArUrGrUrGrArUrArUrCdCdA,57.6
10,sense rGrCrArArCrArUrCrArArCrArGrUrCrArGrGrGdTdT / antisense rCrCrCrUrGrArCrUrGrUrUrGrArUrGrUrUrGrCdAdG,66.1
11,sense rGrCrCrArCrUrCrArGrUrArUrUrUrGrArCrCrAdTdT / antisense rUrGrGrUrCrArArArUrArCrUrGrArGrUrGrGrCdTdA,90.9
12,sense rGrCrGrArGrArCrCrCrArGrCrCrGrCrUrCrCrAdTdT / antisense rUrGrGrArGrCrGrGrCrUrGrGrGrUrCrUrCrGrCdTdG,69.2
13,sense rGrCrUrGrGrGrCrCrUrArArArGrGrArGrArUrAdTdT / antisense rUrArUrCrUrCrCrUrUrUrArGrGrCrCrCrArGrCdAdC,67.2
14,sense rGrGrArGrArUrArArCrArUrUrUrArUrGrArArUdTdT / antisense rArUrUrCrArUrArArArUrGrUrUrArUrCrUrCrCdTdT,75.8
15,sense rGrGrArGrCrUrArGrCrUrGrArArArUrArArCrCdTdT / antisense rGrGrUrUrArUrUrUrCrArGrCrUrArGrCrUrCrCdTdT,80.5
16,sense rGrGrArGrUrCrArUrCrUrGrUrCrUrGrGrArCrAdTdT / antisense rUrGrUrCrCrArGrArCrArGrArUrGrArCrUrCrCdCdT,75.6
17,sense rGrGrArGrUrCrCrCrGrCrUrUrUrGrArCrUrArUdTdT / antisense rArUrArGrUrCrArArArGrCrGrGrGrArCrUrCrCdAdG,69.2
18,sense rGrGrArUrCrCrUrCrUrGrGrUrUrGrGrArArGrCdTdT / antisense rGrCrUrUrCrCrArArCrCrArGrArGrGrArUrCrCdGdC,59.8
19,sense rGrGrUrUrArCrUrUrUrCrCrGrCrArCrCrArGrAdTdT / antisense rUrCrUrGrGrUrGrCrGrGrArArArGrUrArArCrCdTdT,91.4
20,sense rGrGrUrUrUrUrGrCrUrGrUrCrUrArUrUrUrGrUdTdT / antisense rArCrArArArUrArGrArCrArGrCrArArArArCrCdTdT,94.8
21,sense rGrUrCrArGrGrGrArGrUrCrArUrCrUrGrUrCrUdTdT / antisense rArGrArCrArGrArUrGrArCrUrCrCrCrUrGrArCdTdG,83.4
22,sense rGrUrCrArUrCrUrGrUrCrUrGrGrArCrArUrCrCdTdT / antisense rGrGrArUrGrUrCrCrArGrArCrArGrArUrGrArCdTdC,43.8
23,sense rGrUrGrCrUrArArArArGrArArUrUrCrArGrArAdTdT / antisense rUrUrCrUrGrArArUrUrCrUrUrUrUrArGrCrArCdTdA,81.5
24,sense rUrArArArGrArCrArArCrUrGrGrArGrUrCrCrCdTdT / antisense rGrGrGrArCrUrCrCrArGrUrUrGrUrCrUrUrUrAdAdG,43.8
25,sense rUrArArUrUrGrCrArGrUrGrCrUrGrGrGrCrCrUdTdT / antisense rArGrGrCrCrCrArGrCrArCrUrGrCrArArUrUrAdGdG,47.3
26,sense rUrArCrUrUrUrCrCrGrCrArCrCrArGrArArUrCdTdT / antisense rGrArUrUrCrUrGrGrUrGrCrGrGrArArArGrUrAdAdC,49.2
